Read-outs that look alike come from different tables or passages of the source.
Experiments:
[1] = tested on: human PCa (DU145 and PC3) cell lines; assay: MTT assay, summary statements for PCa cells; type: cell-based
Experimental: (§1) Human CRC (HCT116 and HT-29) and PCa (DU145 and PC3) cell lines were purchased from the American Type Culture Collection (ATCC—LGC Standards, Molsheim, France). All cells were grown in RPMI 1640 medium supplemented with 10% FBS, 1% L-glutamine, 100 U/mL penicillin, and 100 μg/mL streptomycin. Cultures were maintained in a humidified atmosphere containing 5% CO2 at 37 °C. Cells were seeded in 75 cm^2 culture flasks at 1.2 × 10^4 cells/cm^2 for HCT116, DU145, and PC3 cells, and 2.0 × 10^4 for HT-29 cells. Cells were grown for 24 h in culture medium prior to exposure or not to obtain the synthesized compounds. Stock solutions (10^−2 M in DMSO) of each compound were diluted in culture medium to obtain appropriate final concentrations.
(§2) • (a) MTT assay: The antiproliferative effect of all compounds was determined using MTT assay (a metabolic activity test). Briefly, cells were seeded in 96-well culture plates at 4 × 10^3 cells/well for HCT116, PC3, and DU145 cells and 6 × 10^3 cells/well for HT-29 cells (100 µL/well), and grown for 24 h in culture medium prior to exposure or not to obtain compounds 1–15 with concentrations ranging from 5 nM to 50 μM. After 24 and 48 h of treatment, MTT (5 mg/mL in PBS) was added and incubated for another 3 h. MTT was then removed from the wells before adding 100 μL/well of DMSO. The optical density was detected with a microplate reader (Multiskan FC, Thermoscientific, Bordeaux, France) at 550 nm and cell viability was expressed as a percentage of each treatment condition compared to control cells. IC50 values were calculated for all compounds from the dose–response curve. Data are expressed as the arithmetic means ± standard error of the mean (SEM) of separate experiments. All experiments were performed at least in triplicate. • (b) Trypan blue dye exclusion method: Cells were grown for 24 h then treated with compounds 10 and 13 at indicated concentrations. After 48 h of treatment, cells were trypsinized and resuspended in complete medium. Each sample was mixed with Trypan blue solution (0.14% in HBSS, Invitrogen-GIBCO, ThermoFisher, Illkirch, France). Colored (non-viable) and dye-excluding (viable) cells were counted with the LUNA-II automated cell Counter (Logos Biosystems; MC2, Aubière, France). The control was normalized to 100% including viable and dead cells. The results indicated on the histograms were expressed as the percentage of cells compared to the control. IC50 values were determined from the percentages of viable cells compared to the control.

[2] = tested on: cellular microtubules in HeLa cells; assay: Quantitative assay of the cellular microtubule content (immunoluminescence); type: cell-based; conditions: Homo sapiens, 0.5 h, 30 min incubation
Experimental: The assay was realized as described by Laisne et al.. Briefly, 7500 HeLa cells were seeded in 96-well microplates (#655086, Greiner bioOne, Courtaboeuf, France) in 100 µL of complete medium per well and then incubated at 37 °C in 5% CO2 for 24 h. Cells were then treated for 30 min at 37 °C with the compounds at concentrations ranging from 0.1 to 1000 µM (1 microplate per molecule, 1 concentration per column), with 0.1% DMSO used as […] (6 wells per microplate). After medium aspiration, treated cells were permeabilized for 10 min using 100 µL per well of warmed (37 °C) OPT buffer (80 mM Pipes, 1 mM EGTA, 1 mM MgCl2, 0.5% Triton X-100, and 10% glycerol, pH 6.8). Cells were fixed overnight at room temperature using 100 µL per well of 4% formaldehyde (Sigma Aldrich, #252549, Saint-Quentin-Fallavier, France) in PBS. Cells were washed 3 times in PBS, 0.1% Tween-20 (100 µL per well), then primary anti-alpha-tubulin antibody (clone α3A1), 1:5000 in PBS 2% Bovine Serum Albumin (BSA), was added for 45 min. Cells were washed twice again and secondary anti-mouse antibody coupled to HRP (1:2000 in PBS 2% BSA, #715-035-150, Jackson Immuno-Research Laboratories, Cambridgeshire, UK) was added for 45 min. Then, cells were washed again with PBS and 100 µL of ECL substrate (#170-5061, Bio-Rad Laboratories Inc., Hercules, CA, USA) was injected in each well using the FLUOstar OPTIMA Microplate Reader (BMG Lab technology, Champagny-sur-Marne, France). The luminescent signal was read immediately after ECL injection. IC50 values were calculated using GraphPad Prism software (10.3.1 version) and are presented in the text as means ± SEM of three independent experiments.

DU145 = assay: MTT assay, antiproliferative effect on DU145; type: cell-based; conditions: Homo sapiens
Experimental: as §1, §2

HT-29 = assay: MTT assay, antiproliferative effect on HT-29; type: cell-based, human
Experimental: as §1, §2

PC3 = assay: MTT assay, antiproliferative effect on PC3; type: cell-based; conditions: Homo sapiens
Experimental: as §1, §2

HeLa cells microtubules = assay: Tubulin immunofluorescence; type: cell-based; conditions: 30 min, chalcone 8 at 1 µM or chalcone 2 at 200 µM
Experimental: Cells at a density of 20,000 cells per well were grown for 48 h on glass coverslips placed in a 24-well microplate. When cells reached 70% confluence, the medium was replaced with a fresh one supplemented with DMSO (0.005% or 0.01%) or the test compound at 1 or 200 µM. After 30 min of incubation, cells were permeabilized in warm OPT buffer (80 mmol/L Pipes, […], 0.5% Triton X-100 and 10% Glycerol, pH 6.8) and fixed for 6 min in −20 °C methanol (Carlo ERBA SAS, #414855, Val-de-Reuil, France). After washing and saturation with a specific blocking buffer (3% BSA), 10% Goat serum (Gibco Invitrogen, #16210064, Carlsbad, CA, USA) in PBS, cells were incubated for 45 min at room temperature (RT) with anti-alpha-tubulin antibody (clone α3A1 in blocking buffer). Cells were washed twice again and subsequently incubated with Alexa 488 conjugated anti-mouse antibody (1:500 in blocking buffer, #115-545-166, Jackson immune-research laboratory, Cambridgeshire, UK) and DNA was stained with Dapi which was included in mounting media (Dapi fluoromount, #0100-20, Clinisciences, France). Images were captured with a Zeiss AxioimagerM2 microscope (Zeiss microscopy, Rueil Malmaison, France) equipped with the acquisition software AxioVision (4.8 version, Marly-le-Roi, France).

HCT116 = assay: MTT assay, antiproliferative effect on HCT116; type: cell-based; conditions: Homo sapiens
Experimental: as §1, §2

[3] = read-out: IC50 depolymerization of cellular microtubules
[4] = DU-145, 24 h, read-out: IC50 DU145 24 h
[5] = DU-145, 48 h, read-out: IC50 DU145 48 h
[6] = 48 h, read-out: IC50 HT-29 48 h
[7] = Homo sapiens, HT-29, 24 h, 24 h, read-out: IC50 HT-29 24 h
[8] = Homo sapiens, HT-29, 48 h, 48 h, read-out: IC50 HT-29 48 h
[9] = PC-3, 24 h, read-out: IC50 PC3 24 h
[10] = PC-3, 48 h, read-out: IC50 PC3 48 h
[11] = HCT-116, 24 h, read-out: IC50 HCT116 24 h
[12] = HCT-116, 48 h, read-out: IC50 HCT116 48 h

Compound	IC50 ([1]; Homo sapiens, DU-145, DU145 and PC3, text summary, read-out: IC50 against PCa cells)	IC50 ([2]; no unit in the picture, read-out: IC50 microtubule contents (printed in Figure 8))	IC50 [2, 3]	IC50 (DU145; [4])	IC50 (DU145; [5])	IC50 (HT-29; [6])	IC50 (HT-29; [7])	IC50 (HT-29; [8])	IC50 (PC3; [9])	IC50 (PC3; [10])	state of tubulin / microtubules by immunofluorescence (HeLa cells microtubules)	IC50 (HCT116; [11])	IC50 (HCT116; [12])	IC50 ([1]; DU145 and PC3, read-out: IC50 towards PCa cells)	IC50 ([1]; Homo sapiens, DU-145, DU145 and PC3, text summary, read-out: IC50 towards PCa cells)
COc1cc(C(=O)/C=C/c2cccc(O)c2)cc(OC)c1OC [chalcone 2, (E)-3-(3-hydroxyphenyl)-1-(3,4,5-trimethoxyphenyl)prop-2-en-1-one]	~3000 nM	106 ± 4.69 µM	106 ± 4.7 µM	3470 ± 240 nM	2970 ± 150 nM	7.34 ± 0.22 µM	9.87 ± 0.44 µM	7.3 µM	3760 ± 280 nM	3440 ± 110 nM	tubulin is mainly in its depolymerized form	4230 ± 110 nM	2660 ± 100 nM		
COc1ccc(/C=C/C(=O)c2cc(OC)c(OC)c(OC)c2)cc1O [chalcone 8, (E)-3-(3-hydroxy-4-methoxyphenyl)-1-(3,4,5-trimethoxyphenyl)prop-2-en-1-one]			0.289 ± 0.045 µM	36 ± 2 nM	31 ± 1 nM	8.11 ± 0.5 µM	8.03 ± 0.18 µM	8.1 µM	21 ± 1 nM	20 ± 1 nM	tubulin is mainly in its depolymerized form	220 ± 10 nM	110 ± 20 nM	~20 nM	17 to 31 nM

Reference: publication PMC11434868, “Synthesis and Antiproliferative Effect of 3,4,5-Trimethoxylated Chalcones on Colorectal and Prostatic Cancer Cells” (Pharmaceuticals, 2024)
